# Results published in ChEMBL document CHEMBL3885861, “Open TG-GATES”.
# Species on record: Rattus norvegicus
# Experiment: Open TG-GATES - Regimen: Daily Repeat
# Format: toxicity, organism-based, Sprague-Dawley
# Set-up: regimen Daily Repeat, gender Male, age 6 weeks
# Conditions: in vivo, iv, route intravenous injection; for TG / TP / gamma-GTP / AST / BUN / CRE / DBIL / GLC / IP / K / LDH / PL / RALB / TBIL / TC / ALP / ALT: tissue Plasma; for KIDNEY_L / KIDNEY_R / KIDNEY_TOTAL: tissue Kidney; for LIVER: tissue Liver
# [1] = 0 mg/kg, […], dose level Control, time 28 day
# [2] = 10 mg/kg, 72 h, dose level Low, time 3 day
# [3] = 10 mg/kg, 72 h, tissue Blood, dose level Low, time 3 day
# [4] = 10 mg/kg, […], dose level Low, time 7 day
# [5] = 10 mg/kg, […], dose level Low, time 14 day
# [6] = 10 mg/kg, […], dose level Low, time 28 day
# [7] = 10 mg/kg, […], tissue Blood, dose level Low, time 7 day
# [8] = 10 mg/kg, […], tissue Blood, dose level Low, time 14 day
# [9] = 10 mg/kg, […], tissue Blood, dose level Low, time 28 day
sequence,measurement,setting,value
GENTAMICIN,TG,[1],101 mg/dL
same,TP,[1],6 g/dL
same,gamma-GTP,[1],2.4 IU/L
same,TERMINAL_BW,[2],228.4 g
same,Bas,[3],0%
same,Eos,[3],0.8%
same,Fbg,[3],300.8 mg/dL
same,Ht,[3],38.3%
same,Lym,[3],71.8%
same,MCHC,[3],34.8%
same,MCV,[3],59.9 fL
same,Mono,[3],3.8%
same,Neu,[3],22%
same,PT,[3],17 s
same,Plat,[3],124.4 x10_4/uL
same,RBC,[3],640 x10_4/ul
same,Ret,[3],5.2%
same,WBC,[3],102 x10_2/uL
same,KIDNEY_L,[2],1 g
same,KIDNEY_R,[2],1 g
same,KIDNEY_TOTAL,[2],2 g
same,LIVER,[2],10.2 g
same,AST,[2],71.8 IU/L
same,BUN,[2],18.2 mg/dL
same,CRE,[2],0.2 mg/dL
same,DBIL,[2],0 mg/dL
same,GLC,[2],174.6 mg/dL
same,IP,[2],6.6 mg/dL
same,K,[2],4.5 meq/L
same,LDH,[2],157.2 IU/L
same,PL,[2],131.2 mg/dL
same,RALB,[2],3 g/dL
same,TBIL,[2],0.012 mg/dL
same,TC,[2],66.4 mg/dL
same,TG,[2],84.6 mg/dL
same,TP,[2],5.5 g/dL
same,gamma-GTP,[2],1.4 IU/L
same,TERMINAL_BW,[4],260.4 g
same,TERMINAL_BW,[5],320 g
same,TERMINAL_BW,[6],376.9 g
same,APTT,[7],22.1 s
same,Bas,[7],0%
same,Eos,[7],1.4%
same,Fbg,[7],290 mg/dL
same,Hb,[7],13.7 g/dL
same,Ht,[7],40%
same,Lym,[7],75.8%
same,MCHC,[7],34.4%
same,MCV,[7],60.6 fL
same,Mono,[7],2.6%
same,Plat,[7],122 x10_4/uL
same,RBC,[7],660.6 x10_4/ul
same,Ret,[7],4.7%
same,WBC,[7],106.3 x10_2/uL
same,APTT,[8],22.5 s
same,Bas,[8],0%
same,Eos,[8],1%
same,Fbg,[8],298.2 mg/dL
same,Hb,[8],14.1 g/dL
same,Ht,[8],39.7%
same,Lym,[8],75.8%
same,MCH,[8],20.6 pg
same,MCHC,[8],35.5%
same,MCV,[8],58.2 fL
same,Mono,[8],2.8%
same,Neu,[8],18.8%
same,PT,[8],16.5 s
same,Plat,[8],124.8 x10_4/uL
same,RBC,[8],683 x10_4/ul
same,Ret,[8],4.4%
same,WBC,[8],118.2 x10_2/uL
same,APTT,[9],25.6 s
same,Bas,[9],0%
same,Eos,[9],1.6%
same,Fbg,[9],309.2 mg/dL
same,Ht,[9],43.2%
same,MCHC,[9],36.1%
same,MCV,[9],53.9 fL
same,Mono,[9],2%
same,Neu,[9],16.4%
same,PT,[9],16.5 s
same,Plat,[9],112.8 x10_4/uL
same,RBC,[9],803.4 x10_4/ul
same,Ret,[9],1.9%
same,WBC,[9],114.2 x10_2/uL
same,KIDNEY_L,[4],1 g
same,KIDNEY_R,[4],1 g
same,KIDNEY_TOTAL,[4],2.1 g
same,KIDNEY_L,[5],1.3 g
same,KIDNEY_R,[5],1.3 g
same,KIDNEY_TOTAL,[5],2.6 g
same,KIDNEY_L,[6],1.4 g
same,KIDNEY_R,[6],1.4 g
same,KIDNEY_TOTAL,[6],2.7 g
same,LIVER,[5],13.6 g
same,LIVER,[6],13.7 g
same,ALP,[4],1411.6 IU/L
same,ALT,[4],40.2 IU/L
same,AST,[4],73 IU/L
same,BUN,[4],18.2 mg/dL
same,CRE,[4],0.2 mg/dL
same,DBIL,[4],0 mg/dL
same,GLC,[4],188.6 mg/dL
same,IP,[4],6.5 mg/dL
same,K,[4],4.3 meq/L
same,LDH,[4],203.6 IU/L
same,PL,[4],146.8 mg/dL
same,RALB,[4],3 g/dL
same,TBIL,[4],0.008 mg/dL
same,TC,[4],70.4 mg/dL
same,TG,[4],121.8 mg/dL
same,TP,[4],5.5 g/dL
same,gamma-GTP,[4],1.2 IU/L
same,ALP,[5],1519.6 IU/L
same,ALT,[5],37 IU/L
same,AST,[5],65.4 IU/L
same,CRE,[5],0.2 mg/dL
same,DBIL,[5],0 mg/dL
same,GLC,[5],186.6 mg/dL
same,IP,[5],6.3 mg/dL
same,K,[5],4.4 meq/L
same,LDH,[5],131.2 IU/L
same,RALB,[5],3.1 g/dL
same,TBIL,[5],0.006 mg/dL
same,TC,[5],61.8 mg/dL
same,TG,[5],152 mg/dL
same,TP,[5],5.8 g/dL
same,gamma-GTP,[5],1.8 IU/L
same,AST,[6],66 IU/L
same,CRE,[6],0.2 mg/dL
same,DBIL,[6],0 mg/dL
same,GLC,[6],176 mg/dL
same,IP,[6],5.8 mg/dL
same,K,[6],4.1 meq/L
same,LDH,[6],137.2 IU/L
same,PL,[6],132 mg/dL
same,RALB,[6],3.1 g/dL
same,TBIL,[6],0.004 mg/dL
same,TC,[6],67.4 mg/dL
same,TG,[6],113.6 mg/dL
same,TP,[6],6.1 g/dL
